Active and inactive are the calls of the source. No cut-off for these calls is given here.
Key:
[1] = target: T1, Gonadotropin-releasing hormone receptor (Rattus norvegicus, UniProt P30969); experiment: Displacement of [125I]-Tyr5, DLeu6, NMeLeu7, Pro-N-Et-GnRH from cloned rat GnRHR
T1 sequence (P30969 whole entry): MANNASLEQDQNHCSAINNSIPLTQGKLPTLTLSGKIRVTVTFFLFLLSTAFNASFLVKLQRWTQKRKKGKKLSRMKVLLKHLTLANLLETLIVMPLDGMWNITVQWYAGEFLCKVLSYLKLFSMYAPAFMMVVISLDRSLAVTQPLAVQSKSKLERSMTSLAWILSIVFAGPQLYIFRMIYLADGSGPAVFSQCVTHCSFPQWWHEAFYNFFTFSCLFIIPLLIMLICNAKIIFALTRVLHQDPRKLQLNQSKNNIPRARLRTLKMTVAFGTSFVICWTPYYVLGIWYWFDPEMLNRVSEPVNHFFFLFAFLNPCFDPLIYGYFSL

[2] = target: T2, Gonadotropin-releasing hormone receptor (Homo sapiens, UniProt P30968); experiment: Inhibition of human GnRHR expressed in RBL cells assessed as inhibition of GnRH-stimulated [3H]inositol phosphate hydrolysis; type: functional, cell-based
T2 sequence (P30968 whole entry): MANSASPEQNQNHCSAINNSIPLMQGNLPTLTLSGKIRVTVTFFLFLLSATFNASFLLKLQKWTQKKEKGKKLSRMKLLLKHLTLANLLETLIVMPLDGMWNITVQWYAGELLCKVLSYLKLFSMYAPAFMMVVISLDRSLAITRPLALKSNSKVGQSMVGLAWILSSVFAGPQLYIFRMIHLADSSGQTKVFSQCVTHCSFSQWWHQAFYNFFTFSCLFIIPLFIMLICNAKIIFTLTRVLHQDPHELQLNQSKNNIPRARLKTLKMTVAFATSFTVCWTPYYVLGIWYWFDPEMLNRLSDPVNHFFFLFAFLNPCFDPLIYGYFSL

[3] = target: T1, Gonadotropin-releasing hormone receptor; experiment: Inhibition of GnRHR in rat pituitary cells assessed as inhibition of GnRH-stimulated LH release; type: functional, cell-based, Pituitary gland cell
[4] = AUC in rat at 15 mg/kg, ip after 24 hrs; type: ADME, organism-based; design: time < 24 hr, dose 15 mg/kg, route intraperitoneal; settings: plasma
[5] = target: T3, Gonadotropin-releasing hormone receptor (Rattus norvegicus) (UniProt P30969); experiment: Decrease in LH concentration in rat plasma at 15 mg/kg, ip after 24 hrs by radioimmunoassay; type: functional, organism-based; design: dose 15 mg/kg
T3 sequence (whole entry): T1 sequence (P30969 whole entry)

[6] = AUC in rat at 1.5 mg/kg, ip after 24 hrs; type: ADME, organism-based; design: time < 24 hr, dose 1.5 mg/kg, route intraperitoneal; settings: plasma
[7] = target: T3, Gonadotropin-releasing hormone receptor (Rattus norvegicus); experiment: Decrease in LH concentration in rat plasma at 1.5 mg/kg, ip after 24 hrs by radioimmunoassay; type: functional, organism-based; design: dose 1.5 mg/kg
[8] = AUC in rat at 4.5 mg/kg, ip after 24 hrs; type: ADME, organism-based; design: time < 24 hr, dose 4.5 mg/kg, route intraperitoneal; settings: plasma

Row | Structure (SMILES) | Ki [1] [nM] | IC50 [2] [nM] | IC50 [3] [nM] | also measured
1 | Cc1cc(C)cc(-c2[nH]c3c(c2[C@H](C)CNCCc2ccncc2)CNCC3)c1 | > 10000 | > 10000 | – | –
2 | Cc1cc(C)cc(-c2[nH]c3c(c2[C@H](C)CNCCc2ccc(=O)n(C)c2)CN(C(=O)Cc2c(F)cccc2C(F)(F)F)CC3)c1 | 0.4 | 32 | – | –
3 | Cc1cc(C)cc(-c2[nH]c3c(c2[C@H](C)CNCCc2ccncc2)CN(C(=O)C2C(C)(C)C2(C)C)CC3)c1 | 1.3 | 475 | 96 | –
4 | Cc1cc(C)cc(-c2[nH]c3c(c2[C@H](C)CNCCc2ccc4nc(C)[nH]c4c2)CN(C(=O)Cc2c(F)cccc2C(F)(F)F)CC3)c1 | 1 | 87 | – | –
5 | Cc1cc(C)cc(-c2[nH]c3c(c2[C@H](C)CNCCc2ccncc2)CN(C(=O)c2ccccc2)CC3)c1 | 660 | > 10000 | – | –
6 | Cc1cc(C)cc(-c2[nH]c3c(c2[C@H](C)CNCCOc2ccc(-c4nnn[nH]4)cc2)CN(C(=O)Cc2c(F)cccc2C(F)(F)F)CC3)c1 | 6.2 | 63 | – | –
7 | Cc1cc(C)cc(-c2[nH]c3c(c2[C@H](C)CNCCc2ccncc2)CN(C(=O)Cc2ccccc2F)CC3)c1 | 1.8 | 271 | 280 | –
8 | Cc1cc(C)cc(-c2[nH]c3c(c2[C@H](C)CNCCc2ccc4nccnc4c2)CN(C(=O)Cc2c(F)cccc2C(F)(F)F)CC3)c1 | 0.3 | 60 | 68 | –
9 | Cc1cc(C)cc(-c2[nH]c3c(c2[C@H](C)CNCCc2cc4[nH]nnc4cc2F)CN(C(=O)Cc2c(F)cccc2C(F)(F)F)CC3)c1 | 0.7 | 16 | 28 | –
10 | Cc1cc(C)cc(-c2[nH]c3c(c2[C@H](C)CNCCc2ccc4nn[nH]c4c2)CN(C(=O)Cc2c(F)cccc2C(F)(F)F)CC3)c1 | 0.5 | 26 | 1.2 | –
11 | Cc1cc(C)cc(-c2[nH]c3c(c2[C@H](C)CNCCc2ccncc2)CN(C(=O)C2CCCC2)CC3)c1 | 18 | 3480 | 250 | –
12 | Cc1cc(C)cc(-c2[nH]c3c(c2[C@H](C)CNCCC2CCOCC2)CN(C(=O)Cc2c(F)cccc2C(F)(F)F)CC3)c1 | 4.7 | 205 | 480 | –
13 | Cc1cc(C)cc(-c2[nH]c3c(c2[C@H](C)CNCCc2ccncc2)CN(C(=O)Cc2ccccc2)CC3)c1 | 4.5 | 1110 | 110 | –
14 | Cc1cc(C)cc(-c2[nH]c3c(c2[C@H](C)CNCCc2ccncc2)CN(C(=O)C24CC5CC(CC(C5)C2)C4)CC3)c1 | 1.5 | 546 | 63 | –
15 | Cc1cc(C)cc(-c2[nH]c3c(c2[C@H](C)CNCCc2ccncc2)CN(C(=O)Cc2ccccc2Cl)CC3)c1 | 2.6 | 267 | – | –
16 | Cc1cc(C)cc(-c2[nH]c3c(c2[C@H](C)CNCCc2ccc(C(=O)O)cc2)CN(C(=O)Cc2c(F)cccc2C(F)(F)F)CC3)c1 | 2 | 22 | – | –
17 | CC(=O)N1CCc2[nH]c(-c3cc(C)cc(C)c3)c([C@H](C)CNCCc3ccncc3)c2C1 | 120 | 8090 | – | –
18 | Cc1cc(C)cc(-c2[nH]c3c(c2[C@H](C)CNCc2ccc(-c4nnn[nH]4)cc2)CN(C(=O)Cc2c(F)cccc2C(F)(F)F)CC3)c1 | 1600 | 1600 | – | –
19 | COc1ccccc1CC(=O)N1CCc2[nH]c(-c3cc(C)cc(C)c3)c([C@H](C)CNCCc3ccncc3)c2C1 | 5.6 | 462 | – | –
20 | CCn1c(=O)[nH]c2cc(CCNC[C@@H](C)c3c(-c4cc(C)cc(C)c4)[nH]c4c3CN(C(=O)Cc3c(F)cccc3C(F)(F)F)CC4)ccc2c1=O | 1.8 | 91 | – | –
21 | Cc1cc(C)cc(-c2[nH]c3c(c2[C@H](C)CNCCc2ccncc2)CN(C(=O)Cc2ccccc2C(F)(F)F)CC3)c1 | 1.5 | 86 | 47 | –
22 | Cc1cc(C)cc(-c2[nH]c3c(c2[C@H](C)CNCCc2ccncc2)CN(C(=O)Cc2c(F)cccc2C(F)(F)F)CC3)c1 | 0.5 | 62 | 57 | –
23 | Cc1cc(C)cc(-c2[nH]c3c(c2[C@H](C)CNCCc2cnc4nn[nH]c4c2)CN(C(=O)Cc2c(F)cccc2C(F)(F)F)CC3)c1 | 0.6 | 9 | 6.4 | –
24 | Cc1cc(C)cc(-c2[nH]c3c(c2[C@H](C)CNCCc2ccc(-c4nnn[nH]4)cc2)CN(C(=O)Cc2c(F)cccc2C(F)(F)F)CC3)c1 | 0.2 | 1.5 | 0.6 | AUC at 24 h [4]: 6500 ng·h/mL; Activity [5]: Active; AUC at 24 h [6]: 1290 ng·h/mL; Activity [7]: Dose-dependent effect; AUC at 24 h [8]: 2470 ng·h/mL
25 | Cc1cc(C)cc(-c2[nH]c3c(c2[C@H](C)CNCCc2ccc(-c4nnn[nH]4)nc2)CN(C(=O)Cc2c(F)cccc2C(F)(F)F)CC3)c1 | 0.6 | 7 | 44 | –
26 | Cc1cc(C)cc(-c2[nH]c3c(c2[C@H](C)CN)CN(C(=O)Cc2c(F)cccc2C(F)(F)F)CC3)c1 | 470 | 4180 | – | –
